# Values quoted from earlier work in patent publication US9682924B2, “Crystalline form of VSN16” (CANBEX THERAPEUTICS LIMITED, priority 2013, dated 2017).
# Legend:
# mesenteric arteries = conditions: for antagonism of VSN16 vasorelaxation: antagonist against VSN16-induced vasorelaxation, rimonabant and AM 251 at high concentrations
# spasticity in CREAE mice = conditions: without producing significant adverse CNS effects
# CB1 receptors = target: T1, CB1 receptors (Rattus norvegicus, UniProt P20272); conditions: rat cerebellum
# T1 construct: from tissue; host or cells: rat cerebellum
# T1 sequence (P20272 whole entry): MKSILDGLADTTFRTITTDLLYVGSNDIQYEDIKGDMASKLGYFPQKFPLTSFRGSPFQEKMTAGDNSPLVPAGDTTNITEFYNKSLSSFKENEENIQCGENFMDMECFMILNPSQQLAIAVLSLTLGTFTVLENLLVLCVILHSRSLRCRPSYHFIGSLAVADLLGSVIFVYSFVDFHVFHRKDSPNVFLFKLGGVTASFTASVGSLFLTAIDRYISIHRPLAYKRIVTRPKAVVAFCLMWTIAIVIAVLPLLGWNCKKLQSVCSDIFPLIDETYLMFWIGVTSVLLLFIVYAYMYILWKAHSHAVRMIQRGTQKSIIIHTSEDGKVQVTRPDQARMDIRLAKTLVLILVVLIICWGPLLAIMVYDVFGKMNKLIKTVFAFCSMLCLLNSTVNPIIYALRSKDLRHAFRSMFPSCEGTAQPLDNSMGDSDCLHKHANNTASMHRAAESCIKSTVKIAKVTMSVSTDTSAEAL
smiles,measurement,setting,value
Cc1c(C(=O)NN2CCCCC2)nn(-c2ccc(Cl)cc2Cl)c1-c1ccc(I)cc1 [AM 251],antagonism of VSN16 vasorelaxation,mesenteric arteries,antagonized
C=C(C)[C@@H]1CCC(C)=C[C@H]1c1c(OC)cc(C)cc1OC [O-1918],antagonism of VSN16 vasorelaxation,mesenteric arteries,antagonized
CC(CO)NC(=O)c1cccc(/C=C\CCCC(=O)N(C)C)c1 (centres unmarked) [VSN16],effect on spasticity,spasticity in CREAE mice,marked effect on spasticity
same,relaxation of mesenteric arteries,mesenteric arteries; endothelium-dependent,relaxes mesenteric arteries in an endothelium-dependent manner
same,"effect on [3H]CP55,940 binding to CB1 receptors",CB1 receptors,does not affect
same,blood pressure,conscious rats,transiently increases blood pressure
same,mesenteric vascular conductance,conscious rats,longer-lasting increase in mesenteric vascular conductance
Cc1c(C(=O)NN2CCCCC2)nn(-c2ccc(Cl)cc2Cl)c1-c1ccc(Cl)cc1 [rimonabant],antagonism of VSN16 vasorelaxation,mesenteric arteries,antagonized
